# Data: patent US20160100574A1, “Antimicrobial Compositions Comprising Glyceryl Ethers” (SYMRISE AG, priority 2013, published 2016)
# Legend:
# Format in all cases: cell-based
# [1] = test system: Staphylococcus aureus; assay: Minimum inhibitory concentration according to DIN 58940, Staphylococcus aureus; conditions: single antimicrobial agents; for MIC: Staphylococcus aureus
# From the text: (§1) In order to calculate the Synergy Index SI with MIC values, the Kull equation is used as follows:
# (§2) SI=(MICmixture×PA)/MICA+(MICmixture×PB)/MICB (II)
# (§3) where SI is the Synergy Index according to Kull^1), 2) MICA is the MIC value for substance A MICB is the MIC value for substance B MICmixture is the MIC value for the mixture of substances A and B PA is the proportion of the substance A in the mixture PB is the proportion of the substance B in the mixture. b) Mixtures containing 3 components
# (§4) SI=(MICmixture×PA)/MICA+(MICmixture×PB)/MICB+(MICmixture×PC)/MICC
# (§5) where SI is the Synergy Index according to Kull^1), 2) MICA is the MIC value for substance A MICB is the MIC value for substance B MICC is the MIC value for substance C MICmixture is the MIC value for the mixture of substances […] PA is the proportion of the substance A in the mixture PB is the proportion of the substance B in the mixture. PC is the proportion of the substance C in the mixture.
# [2] = test system: Candida albicans; assay: Minimum inhibitory concentration according to DIN 58940, Candida albicans; conditions: single antimicrobial agents; for MIC: Candida albicans
# From the text: as §1, §2, §3, §4, §5
# [3] = test system: Aspergillus brasiliensis; assay: Minimum inhibitory concentration according to DIN 58940, Aspergillus brasiliensis; conditions: single antimicrobial agents; for MIC: Aspergillus brasiliensis
# From the text: as §1, §2, §3, §4, §5
# [4] = test system: Pseudomonas aeruginosa; assay: Minimum inhibitory concentration according to DIN 58940, Pseudomonas aeruginosa; conditions: single antimicrobial agents; for MIC: Pseudomonas aeruginosa
# From the text: as §1, §2, §3, §4, §5
# [5] = test system: Escherichia coli; assay: Minimum inhibitory concentration according to DIN 58940, Escherichia coli; conditions: single antimicrobial agents; for MIC: Escherichia coli, read-out: MIC values E. coli
# From the text: as §1, §2, §3, §4, §5
# [6] = test system: C. albicans; assay: Challenge test of preserved emulsion, C. albicans; conditions: for colony counts Day 7: Day 7, 1% b.w. active in aqueous emulsion of Glyceryl stearyl citrate (Dracorin CE); for colony counts Day 14: Day 14, 1% b.w. active in aqueous emulsion of Glyceryl stearyl citrate (Dracorin CE); for colony counts Day 28: Day 28, 1% b.w. active in aqueous emulsion of Glyceryl stearyl citrate (Dracorin CE)
# Protocol: (§6) 1% b.w. of heptylglycerin, benzylglycerin and phenylpropylglycerin, respectively was added to an aqueous emulsion of Glyceryl stearyl citrate (Dracorin CE). The formulations were tested in standard challenge tests against various micro-organisms. The results are shown in Table 1 and indicate the high activity of the actives against yeast and bacteria, but not against mould.
# [7] = test system: E. coli; assay: Challenge test of preserved emulsion, E. coli; conditions: for colony counts Day 2: Day 2, 1% b.w. active in aqueous emulsion of Glyceryl stearyl citrate (Dracorin CE); for colony counts Day 7: Day 7, 1% b.w. active in aqueous emulsion of Glyceryl stearyl citrate (Dracorin CE); for colony counts Day 14: Day 14, 1% b.w. active in aqueous emulsion of Glyceryl stearyl citrate (Dracorin CE); for colony counts Day 28: Day 28, 1% b.w. active in aqueous emulsion of Glyceryl stearyl citrate (Dracorin CE)
# Protocol: as §6
# [8] = test system: P. aeruginosa; assay: Challenge test of preserved emulsion, P. aeruginosa; conditions: for colony counts Day 2: Day 2, 1% b.w. active in aqueous emulsion of Glyceryl stearyl citrate (Dracorin CE); for colony counts Day 7: Day 7, 1% b.w. active in aqueous emulsion of Glyceryl stearyl citrate (Dracorin CE); for colony counts Day 14: Day 14, 1% b.w. active in aqueous emulsion of Glyceryl stearyl citrate (Dracorin CE); for colony counts Day 28: Day 28, 1% b.w. active in aqueous emulsion of Glyceryl stearyl citrate (Dracorin CE)
# Protocol: as §6
# [9] = test system: S. aureus; assay: Challenge test of preserved emulsion, S. aureus; conditions: for colony counts Day 2: Day 2, 1% b.w. active in aqueous emulsion of Glyceryl stearyl citrate (Dracorin CE); for colony counts Day 7: Day 7, 1% b.w. active in aqueous emulsion of Glyceryl stearyl citrate (Dracorin CE); for colony counts Day 14: Day 14, 1% b.w. active in aqueous emulsion of Glyceryl stearyl citrate (Dracorin CE); for colony counts Day 28: Day 28, 1% b.w. active in aqueous emulsion of Glyceryl stearyl citrate (Dracorin CE)
# Protocol: as §6
# [10] = test system: A. brasiliensis; assay: Challenge test / synergy (Kull equation), A. brasiliensis; conditions: for colony counts Day 2: Day 2, 1% b.w. active in aqueous emulsion of Glyceryl stearyl citrate (Dracorin CE); for colony counts Day 14: Day 14, 1% b.w. active in aqueous emulsion of Glyceryl stearyl citrate (Dracorin CE); for colony counts Day 28: Day 28, 1% b.w. active in aqueous emulsion of Glyceryl stearyl citrate (Dracorin CE)
# Protocol: 1% b.w. of heptylglycerin, benzylglycerin and phenylpropylglycerin, respectively was added to an aqueous emulsion of Glyceryl stearyl citrate (Dracorin CE). The formulations were tested in standard challenge tests against various micro-organisms.
# To calculate the synergism between compounds of formula (I) and other antimicrobial actives, the Kull equation^1 2 was used
# SI=(Cmixture×PA)/CA+(Cmixture×PB)/CB (I)
# where SI is the Synergy Index according to Kull^1), 2) CA is the cell count for substance A CB is the cell count for substance B Cmixture is the cell count for the mixture of substances A and B PA is the proportion of the substance A in the mixture PB is the proportion of the substance B in the mixture. ^1 Kull, F. C., Eismann, P. C., Sylvestrowicz, H. D., and R. L. Mayer (1961). Mixtures of Quaternary Ammonium Compounds and Long-chain Fatty Acids as Antifungal Agents. Applied Microbiology 9, 538-541.^2 Steinberg, D.C. (2000). Measuring Synergy. Cosmetics & Toiletries 115 (11), 59-62.
# Colony counts of <100 were arbitrarily set to 100, in order to allow for synergy calculations with the above equation. The abbreviation “n.a.” means not applicable.
# [11] = Day 0, 1% b.w. active in aqueous emulsion of Glyceryl stearyl citrate (Dracorin CE)
# [12] = Table 3, day 0, 1.0% total active
# [13] = Table 3, day 0, relative to day 0, 1.0% total active
# [14] = Table 3, day 2, 1.0% total active
# [15] = Table 3, day 2, relative to day 0, 1.0% total active
# [16] = Table 3, day 7, 1.0% total active
# [17] = Table 3, day 7, relative to day 0, 1.0% total active
# [18] = Table 3, day 14, 1.0% total active
# [19] = Table 3, day 14, relative to day 0, 1.0% total active
# [20] = Table 3, day 28, 1.0% total active
# [21] = Table 3, day 28, relative to day 0, <100 set to 100, 1.0% total active
# [22] = Table 2, day 0, 1.0% total active
# [23] = Table 2, day 0, relative to day 0, 1.0% total active
# [24] = Table 2, day 2, 1.0% total active
# [25] = Table 2, day 2, relative to day 0, 1.0% total active
# [26] = Table 2, day 7, 1.0% total active
# [27] = Table 2, day 7, relative to day 0, 1.0% total active
# [28] = Table 2, day 14, 1.0% total active
# [29] = Table 2, day 14, relative to day 0, 1.0% total active
# [30] = Table 2, day 28, 1.0% total active
# [31] = Table 2, day 28, relative to day 0, <100 set to 100, 1.0% total active
smiles,measurement,setting,value
CCCCCCOCC(O)CO (stereo not shown) [Hexylglycerin],MIC,[1],6000 µg/mL
same,MIC,[2],6000 µg/mL
same,MIC,[3],4000 µg/mL
same,MIC,[4],6000 µg/mL
same,MIC,[5],4000 µg/mL
CCCCCCCOCC(O)CO (stereo not shown) [Heptylglycerin],colony counts Day 2,"[6]; Day 2, 1% b.w. active in aqueous emulsion of Glyceryl stearyl citrate (Dracorin CE)",<100 cfu/g formulation
same,colony counts Day 7,[6],0 cfu/g formulation
same,colony counts Day 14,[6],0 cfu/g formulation
same,colony counts Day 28,[6],0 cfu/g formulation
same,colony counts Day 0,[7]; [11],210.000 cfu/g formulation
same,colony counts Day 2,[7],0 cfu/g formulation
same,colony counts Day 7,[7],0 cfu/g formulation
same,colony counts Day 14,[7],0 cfu/g formulation
same,colony counts Day 28,[7],0 cfu/g formulation
same,colony counts Day 0,[8]; [11],250.000 cfu/g formulation
same,colony counts Day 2,[8],0 cfu/g formulation
same,colony counts Day 7,[8],0 cfu/g formulation
same,colony counts Day 14,[8],0 cfu/g formulation
same,colony counts Day 28,[8],0 cfu/g formulation
same,colony counts Day 0,[9]; [11],230.000 cfu/g formulation
same,colony counts Day 2,[9],0 cfu/g formulation
same,colony counts Day 7,[9],0 cfu/g formulation
same,colony counts Day 14,[9],0 cfu/g formulation
same,colony counts Day 28,[9],0 cfu/g formulation
same,colony counts Day 0,[10]; [11],220.000 cfu/g formulation
same,colony counts Day 2,[10],320.000 cfu/g formulation
same,colony counts Day 14,[10],300.000 cfu/g formulation
same,colony counts Day 28,[10],170.000 cfu/g formulation
same,Colony counts day 0,[10]; [12],220.000 cfu/g formulation
same,Relative colony counts day 0,[10]; [13],1.0000
same,Colony counts day 2,[10]; [14],320.000 cfu/g formulation
same,Relative colony counts day 2,[10]; [15],1.4545
same,Colony counts day 7,[10]; [16],340.000 cfu/g formulation
same,Relative colony counts day 7,[10]; [17],1.5455
same,Colony counts day 14,[10]; [18],300.000 cfu/g formulation
same,Relative colony counts day 14,[10]; [19],1.3636
same,Colony counts day 28,[10]; [20],170.000 cfu/g formulation
same,Relative colony counts day 28,[10]; [21],0.7727
same,MIC,[1],2500 µg/mL
same,MIC,[2],2000 µg/mL
same,MIC,[3],1000 µg/mL
same,MIC,[4],5000 µg/mL
same,MIC,[5],2000 µg/mL
CCCCCCCCOCC(O)CO (stereo not shown) [Octylglycerin],MIC,[1],1000 µg/mL
same,MIC,[2],1000 µg/mL
same,MIC,[3],500 µg/mL
same,MIC,[4],> 2000 µg/mL
same,MIC,[5],1000 µg/mL
"CC(=O)c1ccc(O)cc1 [4HAP, 4-hydroxyacetophenone]",Colony counts day 0,[10]; [22],300.000 cfu/g formulation
same,Relative colony counts day 0,[10]; [23],1.0000
same,Colony counts day 2,[10]; [24],56.000 cfu/g formulation
same,Relative colony counts day 2,[10]; [25],0.1867
same,Colony counts day 7,[10]; [26],1.900 cfu/g formulation
same,Relative colony counts day 7,[10]; [27],0.0063
same,Colony counts day 14,[10]; [28],1.900 cfu/g formulation
same,Relative colony counts day 14,[10]; [29],0.0063
same,Colony counts day 28,[10]; [30],<100 cfu/g formulation
same,Relative colony counts day 28,[10]; [31],0.0003
same,Colony counts day 0,[10]; [12],300.000 cfu/g formulation
same,Relative colony counts day 0,[10]; [13],1.0000
same,Colony counts day 2,[10]; [14],56.000 cfu/g formulation
same,Relative colony counts day 2,[10]; [15],0.1867
same,Colony counts day 7,[10]; [16],1.900 cfu/g formulation
same,Relative colony counts day 7,[10]; [17],0.0063
same,Colony counts day 14,[10]; [18],1.900 cfu/g formulation
same,Relative colony counts day 14,[10]; [19],0.0063
same,Colony counts day 28,[10]; [20],<100 cfu/g formulation
same,Relative colony counts day 28,[10]; [21],0.0003
same,MIC values Staphylococcus aureus,[1],6000 ppm
same,MIC values Candida albicans,[2],6000 ppm
same,MIC values Aspergillus brasiliensis,[3],4000 ppm
same,MIC values Pseudomonas aeruginosa,[4],4000 ppm
same,MIC values E. coli,[5],4000 ppm
OCC(O)COCCCc1ccccc1 (stereo not shown) [Phenylpropylglycerin],colony counts Day 7,[6],<10 cfu/g formulation
same,colony counts Day 14,[6],<10 cfu/g formulation
same,colony counts Day 28,[6],<10 cfu/g formulation
same,colony counts Day 2,[7],<10 cfu/g formulation
same,colony counts Day 7,[7],<10 cfu/g formulation
same,colony counts Day 14,[7],<10 cfu/g formulation
same,colony counts Day 28,[7],<10 cfu/g formulation
same,colony counts Day 2,[8],<10 cfu/g formulation
same,colony counts Day 7,[8],<10 cfu/g formulation
same,colony counts Day 14,[8],<10 cfu/g formulation
same,colony counts Day 28,[8],<10 cfu/g formulation
same,colony counts Day 2,[9],<10 cfu/g formulation
same,colony counts Day 7,[9],<10 cfu/g formulation
same,colony counts Day 14,[9],<10 cfu/g formulation
same,colony counts Day 28,[9],<10 cfu/g formulation
same,colony counts Day 2,[10],500.000 cfu/g formulation
same,colony counts Day 14,[10],20.000 cfu/g formulation
same,colony counts Day 28,[10],5.900 cfu/g formulation
CCCCC(CC)COCC(O)CO (stereo not shown) [Ethylhexylglycerin],Colony counts day 0,[10]; [22],315.000 cfu/g formulation
same,Relative colony counts day 0,[10]; [23],1.0000
same,Colony counts day 2,[10]; [24],159.000 cfu/g formulation
same,Relative colony counts day 2,[10]; [25],0.5048
same,Colony counts day 7,[10]; [26],150.000 cfu/g formulation
same,Relative colony counts day 7,[10]; [27],0.4762
same,Colony counts day 14,[10]; [28],304.000 cfu/g formulation
same,Relative colony counts day 14,[10]; [29],0.9635
same,Colony counts day 28,[10]; [30],304.000 cfu/g formulation
same,Relative colony counts day 28,[10]; [31],0.9635
same,MIC values Staphylococcus aureus,[1],2000 ppm
same,MIC values Candida albicans,[2],2000 ppm
same,MIC values Aspergillus brasiliensis,[3],2000 ppm
same,MIC values Pseudomonas aeruginosa,[4],>20000 ppm
same,MIC values E. coli,[5],2500 ppm
